In general, inhibition refers to the drop in the measured response relative to a control, in per cent.

Each structure is given as a SMILES string. Read-outs that look alike come from different tables or passages of the source. Where only a bound is given, the exact number is not on record here.

The text below walks through data of article PMC11199504, “New hemisynthetic derivatives of sphaeropsidin phytotoxins triggering severe endoplasmic reticulum swelling in cancer cells” (Scientific Reports, 2024).

Assay [1] has as its system KB-C-1. Briefly: MTT assay, KB-C-1 (ABCB1-overexpressing). In kind it is cell-based. Particulars: KBC-1, 72 h, read-out: IC50 determined by MTT assays, KB-C-1. The text has this: (§1) Cancer cell lines were obtained from either the European Collection of Cell Cultures (ECACC; Salisbury, UK) or the American Type Culture Collection (ATCC; Manassas, VA). The two glioma cell lines were the U373 (ECACC code 08061901) and Hs683 (ATCC HTB-138) cell lines. The carcinoma cell lines were the A549 non-small cell carcinoma cell line (ATCC code CCL 185) and the MCF-7 mammary breast carcinoma cell line (ATCC code HTB-22). The melanoma cell lines were the mouse B16F10 cells (ATCC code CRL-6475) and the human SKMEL-28 cells (ATCC code HTB-72). The ovarian cancer cell line A2780 and its cisplatin-resistant subline A2780cis were obtained from Sigma-Aldrich (St. Louis, MO, USA). Colon cancer HCT116 cells were obtained from ATCC (CCL-247) and the oxaliplatin-resistant subline HCT116/OxR established in the W. Berger lab[59]. The HeLa cell derivative KB-3-1 and the colchicine-selected, highly ABCB1-overexpressing subline KB-C-1 were generously donated by Dr. D. W. Shen, Bethesda, MD. RKOp53wt colon cancer cells together with the RKOp53KO (homozygous knock-out) subline[60] were generously provided by Dr. Vogelstein from John Hopkins University, Baltimore. The correct origin of all cell models was confirmed by STR during performance of the experiments. All cell lines were cultured in RPMI1640 culture medium supplemented with 10% heat-inactivated fetal bovine serum, 2% L-glutamine (0.6 mg/mL), 2% penicillin/streptomycin (200 IU/mL and 200 μg/mL) and 0.1 mg/mL gentamicin.
(§2) The MTT (3-(4,5-dimethylthiazol-2-yl)-2,5-diphenyl tetrazolium bromide) colorimetric assay has been conducted as described previously. Briefly, cells were seeded 24 h before their treatment with each compound for a period of 72 h. The concentrations tested ranged from 10 nM to 100 µM. Each assay was conducted in sextuplicates. The number of independent experiments is mentioned in the legend of the tables.
(§3) SI Table 1: IC50 determined by MTT assays. Mean concentration (± standard deviation) in µM required to
(§4) reduce the viability of cells by 50% after a 72 h treatment relative to the control.
(§5) Parental sensitive models Drug-resistant models
In general terms: Tetrazolium assays rely on reduction of a dye to a coloured formazan, in cell work by metabolically active cells.

Assay [2] concerns A549, SKMEL-28, U373, MCF7, Hs683, B16F10. Briefly: MTT colorimetric assay, mean of the six cell lines. In kind it is cell-based. Particulars: for IC50: mean over the six cell lines, 72 h treatment, read-out: IC50 determined by MTT assays, Mean.
From the text: as §1, §2

The test system of assay [3] is B16F10. Briefly: MTT colorimetric assay, B16F10. Particulars: Mus musculus, B16-F10; 72 h treatment; mean ± SEM; sensitive to apoptosis; read-out: IC50 determined by MTT assays, B16F10. In kind it is cell-based.
From the text: as §1, §2

The test system of assay [4] is Drug-resistant models. The assay can be described thus: MTT assay, mean of drug-resistant models. Format: cell-based. The conditions noted are these: 72 h, read-out: IC50 determined by MTT assays, mean of drug-resistant models.
From the text: as §1, §2, §3, §4, §5

The subject of assay [5] is RKO/P53wt. Briefly: MTT assay, RKO/P53wt (parental sensitive). Format: cell-based. Particulars: 72 h, read-out: IC50 determined by MTT assays, RKO/P53wt.
From the text: as §1, §2, §3, §4, §5

For assay [6], the system named is A2780R. The assay can be described thus: MTT assay, A2780R (cisplatin-resistant). In kind it is cell-based. The conditions noted are these: 72 h, read-out: IC50 determined by MTT assays, A2780R.
From the text: as §1, §2, §3, §4, §5

Assay [7] deals with Hct116/OxR. Briefly: MTT assay, Hct116/OxR (oxaliplatin-resistant). In kind it is cell-based. The conditions noted are these: Homo sapiens, HCT-116, 72 h, read-out: IC50 determined by MTT assays, Hct116/OxR.
From the text: as §1, §2, §3, §4, §5

The test system of assay [8] is SKMEL-28. The assay can be described thus: MTT colorimetric assay, SKMEL-28. Format: cell-based. The conditions noted are these: Homo sapiens, SK-MEL-28; 72 h treatment; mean ± SEM; resistant to apoptosis; read-out: IC50 determined by MTT assays, SKMEL-28.
From the text: as §1, §2

Assay [9] deals with KB-3-1. Briefly: MTT assay, KB-3-1 (parental sensitive). Particulars: Homo sapiens, KB 3-1, 72 h, read-out: IC50 determined by MTT assays, KB-3-1. Format: cell-based.
From the text: as §1, §2, §3, §4, §5

For assay [10], the system named is Parental sensitive models. The assay can be described thus: MTT assay, mean of parental sensitive models. Format: cell-based. Particulars: 72 h, read-out: IC50 determined by MTT assays, mean of parental sensitive models.
From the text: as §1, §2, §3, §4, §5

Assay [11] has as its system RKO/p53ko. Briefly: MTT assay, RKO/p53ko. In kind it is cell-based. The conditions noted are these: 72 h, read-out: IC50 determined by MTT assays, RKO/p53ko.
From the text: as §1, §2, §3, §4, §5

Assay [12] deals with A549. Briefly: MTT colorimetric assay, A549. Format: cell-based. Particulars: Homo sapiens, 72 h treatment, mean ± SEM of six replicates of one experiment (1: 7, 13: 6 independent experiments), resistant to apoptosis, read-out: IC50 determined by MTT assays, A549.
From the text: as §1, §2

Assay [13] addresses T1, human TopIIa (Homo sapiens, UniProt P11388).
T1 construct: purchased TopoGen (Port Orange, FL, USA)
The assay can be described thus: Cell-free decatenation assay. In kind it is biochemical. The procedure:
The topoisomerase (Top) activity assay kit, including kinetoplast DNA (kDNA and recombinant human TopIIa enzyme, was obtained from TopoGen (Port Orange, FL, USA), agarose from PeqLab (Erlangen, Germany), 50 × TAE buffer from Roth (Karlsruhe, Germany) and ethidium bromide solution (10 mg/mL) from Sigma-Aldrich (Taufkirchen, Germany). Decatenation assays were performed as described previously[62] with slight modifications according to the manufacturer’s protocol. 100 µM of the recently described dual topoisomerase poison P8-D6 served as a positive control, and 5% DMSO as a solvent control. Briefly, the compounds were dissolved in DMSO and diluted to 20× the concentration to be tested. 1 µL of the resulting stock solutions were mixed with 18 µL of a buffer containing 200 ng kDNA and 1 mM ATP. Subsequently, 1 µL of a 1u/µL dilution of TopIIa enzyme was added and incubated at 37 °C for 30 min. Afterwards, the reaction was stopped by addition of Stop buffer, and electrophoresis was carried out on a 1% agarose gel in TAE buffer. The gel was stained with 0.5 µg/mL ethidium bromide, washed with water, and fluorescence images were captured with the LAS4000 system (Fujifilm, Duesseldorf, Germany). All steps were carried out on ice.

Assay [14] relates to Hct116. The assay can be described thus: MTT assay, Hct116 (parental sensitive). Format: cell-based. The conditions noted are these: Homo sapiens, HCT-116, 72 h, read-out: IC50 determined by MTT assays, Hct116.
From the text: as §1, §2, §3, §4, §5

The test system of assay [15] is MCF7. Briefly: MTT colorimetric assay, MCF7. In kind it is cell-based. The conditions noted are these: Homo sapiens, 72 h treatment, mean ± SEM, sensitive to apoptosis, read-out: IC50 determined by MTT assays, MCF7.
From the text: as §1, §2

In assay [16] the test system is Hs683. Briefly: MTT colorimetric assay, Hs683. Format: cell-based. Particulars: Homo sapiens, Hs 683; 72 h treatment; mean ± SEM; sensitive to apoptosis; read-out: IC50 determined by MTT assays, Hs683.
From the text: as §1, §2

T1 sequence (P11388 whole entry): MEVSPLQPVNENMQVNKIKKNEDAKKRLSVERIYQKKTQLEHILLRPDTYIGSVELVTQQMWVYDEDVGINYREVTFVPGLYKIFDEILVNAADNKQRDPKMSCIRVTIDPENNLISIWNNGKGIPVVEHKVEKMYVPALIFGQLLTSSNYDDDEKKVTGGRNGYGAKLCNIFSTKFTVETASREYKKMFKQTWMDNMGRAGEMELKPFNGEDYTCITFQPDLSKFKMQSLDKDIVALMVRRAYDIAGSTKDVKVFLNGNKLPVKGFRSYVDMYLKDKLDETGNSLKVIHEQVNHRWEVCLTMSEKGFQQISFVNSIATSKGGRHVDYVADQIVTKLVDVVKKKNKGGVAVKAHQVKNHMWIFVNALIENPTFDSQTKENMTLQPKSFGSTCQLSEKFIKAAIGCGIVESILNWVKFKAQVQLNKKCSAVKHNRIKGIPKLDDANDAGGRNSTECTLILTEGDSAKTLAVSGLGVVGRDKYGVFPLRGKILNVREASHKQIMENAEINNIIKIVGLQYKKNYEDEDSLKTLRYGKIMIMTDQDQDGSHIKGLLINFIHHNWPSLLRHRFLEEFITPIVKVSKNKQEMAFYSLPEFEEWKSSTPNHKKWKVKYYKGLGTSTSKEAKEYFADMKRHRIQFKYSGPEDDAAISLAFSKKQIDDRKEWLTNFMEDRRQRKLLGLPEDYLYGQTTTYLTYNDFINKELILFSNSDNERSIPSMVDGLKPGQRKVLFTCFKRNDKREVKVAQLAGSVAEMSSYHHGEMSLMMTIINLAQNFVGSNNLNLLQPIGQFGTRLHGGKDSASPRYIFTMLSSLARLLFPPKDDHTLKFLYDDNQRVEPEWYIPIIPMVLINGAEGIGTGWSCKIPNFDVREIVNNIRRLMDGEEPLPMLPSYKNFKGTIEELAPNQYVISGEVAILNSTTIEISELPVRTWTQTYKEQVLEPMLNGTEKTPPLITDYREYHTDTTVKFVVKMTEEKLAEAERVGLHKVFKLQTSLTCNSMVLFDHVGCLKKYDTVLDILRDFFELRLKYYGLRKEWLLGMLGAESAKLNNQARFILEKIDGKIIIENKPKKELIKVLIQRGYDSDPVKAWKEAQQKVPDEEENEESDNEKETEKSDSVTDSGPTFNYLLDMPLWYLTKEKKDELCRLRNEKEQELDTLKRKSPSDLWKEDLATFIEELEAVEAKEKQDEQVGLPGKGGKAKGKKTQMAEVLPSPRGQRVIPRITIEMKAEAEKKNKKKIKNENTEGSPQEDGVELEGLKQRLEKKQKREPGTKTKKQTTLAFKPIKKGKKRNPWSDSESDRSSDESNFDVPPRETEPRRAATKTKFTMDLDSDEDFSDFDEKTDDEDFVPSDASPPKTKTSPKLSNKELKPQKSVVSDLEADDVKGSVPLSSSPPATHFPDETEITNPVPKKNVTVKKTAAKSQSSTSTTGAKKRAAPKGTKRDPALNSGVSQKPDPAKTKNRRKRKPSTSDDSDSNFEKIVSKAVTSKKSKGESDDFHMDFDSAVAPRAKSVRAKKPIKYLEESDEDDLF

Take `C=C[C@]1(C)C=C2C(=O)[C@@]3(O)OC(=O)[C@@]4(CCCC(C)(C)[C@H]34)[C@@]2(O)CC1` [Compound 1, sphaeropsidin A, reference compound]: the IC50 was 8100 ± 700 nM in [1]; 2070 ± 150 nM in [2] (72 h); 1550 ± 270 nM in [3]; 4000 nM in assay [4]; 1900 ± 300 nM in assay [5]; 2400 ± 100 nM in assay [6]. The IC50 amounted to 1700 ± 400 nM in [7]; 2320 ± 150 nM in [8]; 5400 ± 1000 nM in assay [9]; 3000 nM in assay [10]; 1500 ± 100 nM in assay [11]; 1710 ± 260 nM in assay [12]. Besides, the IC50 in [14] came to 3400 ± 500 nM; in assay [15], 2410 ± 350 nM; in [16], 2310 ± 230 nM. The inhibition at 500 µM in assay [13] (at 500 µM, read-out: TopoIIa inhibition) was about 50%.
In the case of `CC1(C=CCCCc2ccc3ccc4cccc5ccc2c3c45)C=C2C(=O)C3(O)OC(=O)C4(CCCC(C)(C)C34)C2(O)CC1` (stereo not drawn) [Compound 13], the IC50 worked out at 3200 ± 600 nM in assay [1]; 300 nM in assay [2] (72 h); 370 ± 40 nM in [2]; 290 ± 10 nM in assay [3]; 2000 nM in assay [4]; 1100 nM in assay [5]. Besides, the IC50 was 1600 ± 90 nM in assay [6]; 800 ± 50 nM in assay [7]; 310 ± 10 nM in [8]; 1900 ± 50 nM in assay [9]; 1000 nM in assay [10]; 1500 ± 50 nM in assay [11]. The IC50 in assay [12] stood at 380 ± 30 nM; in [14], 1000 ± 100 nM; in assay [15] it was 300 ± 20 nM; in assay [16] it was 350 ± 20 nM. For the same compound, the “IC50 fold lower than compound 1” value in assay [2] (cancer cell panel, MTT) was 5–10 times. In addition, in assay [13], the “concentration from which TopIIa inhibition trend was observed” value is at least 1 µM. Moreover, the “concentration significantly different from the solvent control (TopIIa inhibition)” value in assay [13] is reported as at least 1 µM.
In the case of `CC1(C=CCCCc2ccc3ccc4cccc5ccc2c3c45)C=C2C(O)C3(O)OC(=O)C4(CCCC(C)(C)C34)C2(O)CC1` (stereo not drawn) [Compound 16], the IC50 in assay [1] amounted to 15200 ± 1300 nM; in [2] (72 h), 6860 ± 530 nM; in [3] it was 5110 ± 420 nM; in [4], 9000 nM; in assay [5], 5600 ± 200 nM; in [6], 8300 ± 300 nM. Further, the IC50 in [7] amounted to 6600 ± 1300 nM; in assay [8], 7240 ± 70 nM; in assay [9], 13800 ± 1400 nM; in assay [10], 8000 nM; in assay [11], 6900 ± 400 nM; in [12], 6610 ± 80 nM. The figures for the IC50 in assay [14], in assay [15] and in [16] were 7100 ± 200 nM, 5980 ± 190 nM and 7340 ± 200 nM, respectively. In [13], the “concentration from which TopIIa inhibition trend was observed” value is listed as at least 1 µM.
